Entries after “also recorded” stand apart in the source; their conditions may differ.
Columns and labels:
monoarthritic rats = experiment: Paw pressure test (vocalization threshold) in monoarthritic rats (intraarticular FCA); format: in vivo, rat; settings: for antihyperalgesic effect in model of monoarthritis (overall): i.p. 0.1, 1 and 10 mg/kg
Description: Experimentation was done blindly using the block method with randomization. Unilateral monoarthritits was induced by an intraarticular injection of FCA (0.05 ml) into the tibio tarsial cavity of the right hindpaw of the rat under volatile anaesthetic (5% isofluorane). Fourteen days later, drugs were intraperitoneally given as a single administration. Pain reaction thresholds (vocalization or struggle) were measured using the paw pressure test before induction of monoarthritis, just before drug injections and 15 min, 30 min, 45 min, 1 h, 1 h 30, 2 h and 3 h after drug injections. Pressure was gradually applied to the injected hindpaw of the rat (tibio tarsial articulation) and pain reaction thresholds were determined as the pressure (g) required to elicit struggle or vocalization.
Results were expressed as pressure (g) which induces pain reaction (mean+/−SEM). The cut-off value corresponds to the maximum pressure that the apparatus allows (750 g). Data were analyzed by a two-way analysis of variance (ANOVA) to compare time-course scores. These analyses were followed by a Tukey test when the F-value was significant. The significance level was p<0.05.

[1] = Solubility of test articles in the dosing vehicle (Example 3); settings: at 10 mg/kg (2 mL/kg, NaCl 0.9%/DMSO 50/50)
[2] = test system: ipsilateral (inflamed) hindpaw of the FCA-rat model of inflammatory pain; experiment: Paw Pressure Test, FCA-rat model of inflammatory pain (Example 1), ipsilateral hindpaw; format: in vivo; settings: single i.p. bolus doses ~7-70 mg/kg (estimated doses)
Description: Single bolus doses of PD-123,319 were administered by the i.p. route to rats with FCA-induced unilateral hindpaw inflammation, a rat model of inflammatory pain. Anti-hyperalgesic (pain-relieving) efficacy was assessed using the Paw Pressure Test, a test which involves the application of noxious pressure to the inflamed hindpaw.
Following i.pl. […] The ability of single bolus doses of PD-123,319 (˜7-70 mg/kg) or vehicle to alleviate mechanical hyperalgesia in the ipsilateral (inflamed) hindpaw was assessed using the Paw Pressure Test (PPT).

[3] = test system: ipsilateral hindpaw volume of FCA-rats; experiment: Paw volume measurement in FCA-rats (water displacement); format: in vivo, rat; settings: 3 h post-dosing, single bolus doses tested
Description: Paw volume was assessed using displacement of water by the hindpaw to indicate the paw volume. These measurements were undertaken for both the ipsilateral and contralateral hindpaws prior to and 5 days after i.pl. FCA administration and prior to and 3 h post-dosing.

FCA-rats = experiment: Behavioural observations in FCA-rats; format: in vivo, rat; settings: single bolus: EMA500 1-100 mg/kg i.p., EMA600 1-30 mg/kg i.p., morphine 0.5 mg/kg
From the text: The animals were monitored for visible and audible signs of distress throughout the testing period. The visible signs of distress included behavioural changes such as complete immobility, movement with abnormal gait, agitation, aggression, wet dog shakes, excessive grooming, restlessness with constant movement, repeated sudden movements or staring.

[4] = test system: ipsilateral (inflamed) hindpaw of FCA-rats; experiment: Paw Pressure Test (PPT) in FCA-rats (Example 2), anti-hyperalgesia in ipsilateral hindpaw
[5] = test system: contralateral (non-inflamed) hindpaw of FCA-rats; experiment: Paw Pressure Test (PPT) in FCA-rats (Example 2), antinociception in contralateral hindpaw; settings: 0.5 mg/kg s.c.; did not reach statistical significance (p>0.05)

## COc1ccc2c(c1OCc1ccccc1)CC(C(=O)O)N(C(=O)C(c1ccccc1)c1ccccc1)C2 (single isomer, unassigned; (+)) [EMA400, (+)-2-(Diphenylacetyl)-1,2,3,4 tetrahydro-6-methoxy-5-(phenylmethoxy)-3-isoquinoline carboxylic acid]
Monoarthritic rats; 1 mg/kg i.p., 15 minutes after the injection
  antihyperalgesic effect: +20%
Monoarthritic rats; 10 mg/kg i.p., 15 minutes after the injection
  antihyperalgesic effect: +40%
Monoarthritic rats; 10 mg/kg i.p., 30 minutes after the injection
  antihyperalgesic effect: significant antihyperalgesic effect
Monoarthritic rats
  antihyperalgesic effect in model of monoarthritis (overall): induce antihyperalgesic effects
[1]
  solubility issues: Solubility issues were observed

## COc1ccc(Cn2cnc3c2CC(C(=O)O)N(C(=O)C(c2ccccc2)c2ccccc2)C3)cc1C (stereo not drawn) [EMA300, 1-(3-methyl-4-methoxyphenyl)-methyl-5-diphenylacetyl-4,5,6,7-tetrahydro-1H-imidazo[4,5-c]pyridine-6-carboxylic acid]
Monoarthritic rats; 0.1 mg/kg i.p., 15 and 30 minutes after drug injection
  antihyperalgesic effect: +6%
Monoarthritic rats; 1 mg/kg i.p., 15 and 30 minutes after drug injection
  antihyperalgesic effect: +22%
Monoarthritic rats; 10 mg/kg i.p., 15 and 30 minutes after drug injection
  antihyperalgesic effect: +56%
Monoarthritic rats
  antihyperalgesic effect in model of monoarthritis (overall): dose-dependent antihyperalgesic effect; also recorded: induce antihyperalgesic effects

## Cc1cc(Cn2cnc3c2CC(C(=O)O)N(C(=O)C(c2ccccc2)c2ccccc2)C3)ccc1N(C)C (stereo not drawn) [PD-123,319, 1-(4-Dimethylamino-3-methylphenyl)methyl-5-diphenylacetyl-4,5,6,7-tetrahydro-1H-imidazo[4,5-c]-pyridine-6-carboxylic acid]
[2]
  relief of mechanical hyperalgesia in the ipsilateral (inflamed) hindpaw: dose-dependent relief of mechanical hyperalgesia

## CN1CC[C@]23c4c5ccc(O)c4O[C@H]2[C@@H](O)C=C[C@H]3[C@H]1C5 [morphine]
[3]
  effect on ipsilateral hindpaw volume: did not alter ipsilateral hindpaw volumes; also recorded: unaffected
FCA-rats
  adverse behavioural effects: did not produce adverse behavioural effects
Monoarthritic rats; morphine 5 mg/kg i.p., compared to pre-induction values
  antinociceptive effect (vocalization threshold): significant increase in the vocalization threshold
[4]; 0.5 mg/kg s.c. single bolus
  duration of action (anti-hyperalgesic response): 2 to 3 h
[4]; 0.5 mg/kg s.c. single bolus, post-dosing
  time of peak anti-hyperalgesic response: 0.5 h
[4]; 0.5 mg/kg s.c., 0.5 h post-dosing
  reversal of FCA-induced mechanical hyperalgesia: fully reversed FCA-induced mechanical hyperalgesia
[4]; 0.5 mg/kg s.c., 0.5 h post-dosing, pre-dosing 63.7 (±2.5) g
  mean (±SEM) PPT at the time of peak effect, ipsilateral hindpaw: 115.0 (±10.6) g
[5]
  antinociceptive effect in the contralateral hindpaw: small antinociceptive effect
